Experimental data reported in ChEMBL document CHEMBL4765401, “Synthesis, and biological evaluation of 3,6-diaryl-[1,2,4]triazolo[4,3-a]pyridine analogues as new potent tubulin polymerization inhibitors” (Eur J Med Chem, 2020).
Each block holds one compound with its values, some of them ahead of it. Activity calls are given as the source filed them. The calls are words filed in the database; no cut-off is given here.

How the values were obtained:
HeLa [1] = assay: Antiproliferative activity against human HeLa cells measured after 48 hrs by MTT assay; type: functional, cell-based
HEK293 = assay: Cytotoxicity against HEK293 cells measured after 48 hrs by MTT assay; type: cell-based; details: Homo sapiens, HEK293, 48 h
HeLa [2] = assay: Induction of microtubule disruption in human HeLa cells at 12 nM measured after 6 hrs by DAPI staining based immunofluorescence microscopy; type: cell-based
MCF7 = assay: Antiproliferative activity against human MCF7 cells measured after 48 hrs by MTT assay; type: functional, cell-based; details: MCF7, 48 h
Sus scrofa = species: Sus scrofa; assay: Inhibition of pig brain tubulin polymerization at 10 uM measured at 1 min interval for 20 mins by spectrophotometric method relative to control
A549 = assay: Antiproliferative activity against human A549 cells measured after 48 hrs by MTT assay; type: functional, cell-based; details: A549, 48 h
T47D = assay: Antiproliferative activity against human T47D cells measured after 48 hrs by MTT assay; type: functional, cell-based
[3] = Inhibition of pig brain tubulin polymerization measured at 1 min interval for 20 mins by spectrophotometric method; parameters: species or system Sus scrofa

SMILES: COc1cc(-c2ccc3nnc(-c4ccc(C)cc4)n3c2)cc(OC)c1OC
- IC50 (HeLa [1]): > 25 µM

SMILES: COc1ccc(-c2nnc3ccc(-c4cc(OC)c(OC)c(OC)c4)cn23)cc1N
- IC50 (HeLa [1]): 3.97 µM

SMILES: COc1cc(-c2nnc3ccc(-c4ccc(Cl)cc4)cn23)cc(OC)c1OC
- IC50 (HeLa [1]): 0.065 µM
- IC50 (HEK293): > 100 µM

SMILES: COc1ccc(/C=C\c2cc(OC)c(OC)c(OC)c2)cc1O [COMBRETASTATIN A4]
- IC50 (HeLa [1]): 0.0047 µM
- Activity (HeLa [2]): Active
- IC50 (MCF7): 0.17 µM
- inhibition (Sus scrofa): 79%

SMILES: COc1ccc(-c2nnc3ccc(-c4cc(OC)c(OC)c(OC)c4)cn23)cc1
- IC50 (HeLa [1]): > 25 µM

SMILES: COc1cc(-c2nnc3ccc(-c4ccc(O)cc4)cn23)cc(OC)c1OC
- IC50 (HeLa [1]): > 25 µM

SMILES: COc1ccccc1-c1ccc2nnc(-c3cc(OC)c(OC)c(OC)c3)n2c1
- IC50 (HeLa [1]): 0.084 µM
- IC50 (HEK293): > 100 µM
- IC50 (A549): 9.28 µM
- IC50 (MCF7): 13.7 µM
- inhibition (Sus scrofa): 16%
- IC50 (T47D): 31.5 µM

SMILES: COc1ccc(F)cc1-c1ccc2nnc(-c3cc(OC)c(OC)c(OC)c3)n2c1
- IC50 (HeLa [1]): 0.651 µM

SMILES: COc1cc(-c2ccc3nnc(-c4ccc(F)cc4)n3c2)cc(OC)c1OC
- IC50 (HeLa [1]): > 25 µM

SMILES: COc1ccc(-c2ccc3nnc(-c4cc(OC)c(OC)c(OC)c4)n3c2)cc1
- IC50 (HeLa [1]): 0.194 µM

Further compounds by falling IC50 (HeLa [1]), results first:

- IC50 (HeLa [1]): 22.1 µM
SMILES: COc1ccc(-c2nnc3ccc(-c4cc(OC)c(OC)c(OC)c4)cn23)cc1O

- IC50 (HeLa [1]): 0.347 µM
SMILES: COc1cc(-c2nnc3ccc(-c4ccc(Cl)c(Cl)c4)cn23)cc(OC)c1OC

- IC50 (HeLa [1]): 0.153 µM
SMILES: COc1cc(F)ccc1-c1ccc2nnc(-c3cc(OC)c(OC)c(OC)c3)n2c1

- IC50 (HeLa [1]): 0.045 µM
- IC50 (A549): 17.8 µM
- IC50 (MCF7): > 100 µM
- inhibition (Sus scrofa): 14%
- IC50 (T47D): > 100 µM
SMILES: COc1ccc(-c2ccc3nnc(-c4cc(OC)c(OC)c(OC)c4)n3c2)cc1O
- IC50 (HEK293): > 100 µM

- IC50 (HeLa [1]): 0.034 µM
- IC50 (A549): 6.26 µM
- IC50 (MCF7): > 100 µM
- inhibition (Sus scrofa): 77%
- IC50 [3]: 4.1 µM
- IC50 (T47D): > 100 µM
SMILES: COc1cc(-c2nnc3ccc(-c4ccc(C)cc4)cn23)cc(OC)c1OC
- IC50 (HEK293): > 100 µM
